Test results published in patent publication US9662371B2, “Treatment of autism and similar disorders” (Neuropharmacology Services, LLC, priority 2002, dated 2017).

How the values were obtained:
[1] = system: adult patients diagnosed with autism or Asperger's disorder; test: Oxytocin vs placebo 4-hour intravenous infusion challenge, rating of six repetitive behaviors; format: in vivo, human
Description: To evaluate the role of oxytocin in treating autism spectrum disorders, fifteen adult patients (mean age=32.9 years, range=19.4-55.6) (14 male, 1 female) diagnosed with autism (N=6) or Asperger's disorder (N=9) received oxytocin and placebo challenges during visits separated by 2-3 weeks to the General Clinical Research Center of the Department of Psychiatry, Seaver Autism Research Center at the Mount Sinai School of Medicine (New York, N.Y.).
Patients and their guardians signed written informed consent agreements, and the study was carried out in accordance with the Declaration of Helsinki as adopted and promulgated by the National Institutes of Health. All patents were medically healthy, without a current or past history of schizophrenia, psychotic disorders, substance abuse, other Axis I mental disorders, or seizure disorders. Patients were of average intelligence, with a mean IQ (±SD) of 90.33 (±9.90) (range=74-110). Nine patients were medication free for greater than one year prior to the study; three patents were medication free for greater than six weeks prior to the study (one was previously on fluoxetine, one on sertraline and one on bupropion); and the remaining three patents were medication free for a minimum of two weeks prior to and throughout the study (one was previously on fluvoxamine and risperidone, one on sertraline and one on clonazepam).
Each individual subject underwent two identical challenge days in which they received a continuous infusion over 4 hours of synthetic oxytocin (Pitocin®) or placebo.
(§1) All subjects were admitted into the General Clinical Research Center on the evening prior to each challenge. Following an overnight fast, the subject was awakened at 8:00 AM and an indwelling intravenous catheter inserted. At 8:30 AM vital signs were taken, and these continued to be monitored every half-hour. At 9:00 AM, 6 cc of blood were drawn and the oxytocin/placebo infusion was administered in a randomized double-blind fashion. The initial vial of Pitocin® (10 u/mL) combined aseptically with a 1.0 L bag of normal saline was first given at a rate of 10 mL/hr which is equivalent to a dose rate of 0.1 units/hour. The infusion was initiated at a low rate to minimize potential side effects, and the rate gradually titrated up. Specifically, the dose rate was titrated every 15 minutes by 25 mL/hour in the first hour, 50 mL/hour in the second hour, 100 mL/hour in the third hour, and held constant at the maximum rate of 700 mL/hr during the fourth hour. This created a range of dosing from 0.1 U/hour to 7 U/hour. See below:
The combined solution, rotated in an infusion bottle to insure thorough mixing, was added to the system by a constant infusion pump to accurately control the rate of infusion.
(§2) Staff members were given specific instructions to discontinue increasing the rate of infusion if the patient experienced significant side effects. In order to assess possible cardiovascular effects, blood pressure and pulse were recorded every half hour. Oral temperature was recorded every hour. All fifteen subjects returned in 2-3 weeks for an identical challenge administered with the other infusion substance.
Severity of repetitive autistic behaviors was evaluated using a method developed during past research with the autistic population. Six behaviors were assessed: need to know, repeating, ordering, need to tell/ask, self-injury, and touching. The ratings were completed at baseline (O), 60, 120, 180, and 240 minutes and reported. The frequency of each of the six repetitive behaviors was recorded using a four point ordinal scale with the following values: 0=never, 1=rarely, 2=sometimes, 3=constantly. These ratings were done following a 15 to 20 minute interview during which several other measures were administered and the rater had the opportunity to observe the patient's behavior in this domain. […]

[2] = system: adult patients diagnosed with autism or Asperger's disorder; test: Side effects and vital signs (blood pressure, pulse, oral temperature) during the oxytocin infusion challenge; format: in vivo, human
Protocol: as §1, §2
A repeated measure analysis of variance (ANOVA) was conducted looking at the two infusions (oxytocin vs. placebo) over time (0, 60, 120, 180 and 240 minutes). A logarithmic transformation was done for the repetitive behavior ratings because the data were not normally distributed. Baseline differences on the oxytocin vs. placebo days were examined using paired sample t-tests. Differences in response between patients with autism and patients with Asperger's disorder were examined using independent sample t-tests. […]

[3] = baseline (0) to endpoint (240 minutes), 15 patients, FIG. 2

CC[C@H](C)[C@@H]1NC(=O)[C@H](Cc2ccc(O)cc2)NC(=O)[C@@H](N)CSSC[C@@H](C(=O)N2CCC[C@H]2C(=O)N[C@@H](CC(C)C)C(=O)NCC(N)=O)NC(=O)[C@H](CC(N)=O)NC(=O)[C@H](CCC(N)=O)NC1=O [oxytocin]
individual dimensions of repetitive behavior, oxytocin versus placebo infusions over time ([1]; ANOVA of individual items, at p<0.05): no significant differences | main effect for drug on repetitive behaviors ([1]; ANOVA, F=1.835, df=1, 13, p=0.199): no significant main effect | total number of repetitive behaviors observed following administration ([1]; autistic study group, FIG. 1 (dashed line)): appears to decrease | patients with an increase in repetitive behaviors [1, 3]: 1 patient | patients with no change in repetitive behaviors [1, 3]: 1 patient | response of patients with autism versus patients with Asperger's disorder following oxytocin infusion ([1]; independent sample t-test, t=0.687, df=13, p=0.504): did not differ | number of different types of repetitive behavior at endpoint ([1]; individuals who responded to oxytocin, endpoint (240 minutes)): none or one | reduction in repetitive behaviors over time following oxytocin compared to placebo ([1]; repeated measures ANOVA, 0-240 min, drug×time interaction F=3.487, df=4, 52, p=0.027, FIG. 1): significantly greater reduction | touching behavior, oxytocin versus placebo over time ([1]; time×drug interaction F=2.444, df=4, 52, p=0.093 (p<0.10)): directional difference | repeating behavior, oxytocin versus placebo over time ([1]; time×drug interaction F=2.70, df=4, 52, p=0.086 (p<0.10)): directional difference | effects of infusion on blood pressure, pulse, or temperature ([2]; 4-hour infusion, 0.1 U/hour to 7 U/hour): no significant effects | side effects ([2]; 4-hour infusion, drowsiness, anxiety, depression, headache, tingling, backache, trembling, restlessness, stomach cramps, enuresis): mild | relationship between presence or number of side effects and behavioral response ([2]; chi square analysis): no relationship
